# Values joined by “and” are separate entries in the source; they are usually repeats but may differ in a detail not shown here. Equal entries are not always repeated. Where two headings read alike, the source gives them in different places.
# Assays:
# K562 cells = test: Treatment of K562 cells and analysis of globin mRNA by primer extension; assay type: cell-based, human; settings: for Radioactivity Alpha Globin (α) mRNA / Radioactivity Fetal Globin (γ) mRNA / γ/α / stimulating γ globin compared to control cells (ranking in words): K562 cells; for Radioactivity Alpha Globin (α) mRNA / Radioactivity Fetal Globin (γ) mRNA: phosphorimager; for γ/α: ratio of globin mRNA radioactivity; for fold induction at 1000 µM: Homo sapiens, K562, 72 h, read-out: increase in γ-globin mRNA over constitutive levels in untreated control K562 cells
# Procedure: K562 cells kindly provided by Dr. George Atweh were cultured with 10% fetal bovine serum (Sigma, St. Louis, Mo.) and RPMI media (Grand Island Biological Company, Grand Island, N.Y.) in a humidified atmosphere with 5% CO2/95% air. Compounds were tested at a final concentration of 1 mM at neutral pH and included butyric acid, phenoxyacetic acid, dimethylbutric acid, alpha-methylhydrocionamic acid, 2,3, and 4-methoxyhydrocinnamic acid, dihydrocinnamic acid, methoxycinnamic acid, methoxyacetic acid, phenylpropionic acid, amino hydrocinnamic acid, DL β- and DL-βamino-n-butyric acid, cinnamic acid, and 2 methylhydrocinnamic acid (Aldrich Chemical Company, St. Louis, Mo.). Additional compounds studied included dimethylhydroxy acetic acid, dimethylpropionic acid, dimethylphenoxyacetic acid, and dimethylmethoxyacetic acid. After three days of culture with these agents, mRNA was purified and α, β, and γ globin mRNA was analyzed by primer extension using oligonucleotide primers and quantitation on a PhosphoImager as previously described.
# thalassemic patients = test: Pulsed arginine butyrate infusion in thalassemic disorders; assay type: in vivo; settings: 4 days with infusions about 8 hours per day, then 7 days of no treatment
# Procedure: Individual pulses can be delivered to the patient continuously over a period of several hours, such as about 2, 4, 6, 8, 10, 12, 14 or 16 hours, or several days, such as 2, 3, 4, 5, 6, or 7 days, preferably from about 1 hour to about 24 hours and more preferably from about 3 hours to about 9 hours. Alternatively, periodic doses can be administered in a single bolus or a small number of injections of the composition over a short period of time, typically less than 1 or 2 hours. […] Substantially means that there are positive consequences that raise the patient's standard of living such as, for example, increased activity or mobility, fewer side-effects, fewer hospital stays or visits to the physician, or fewer transfusions.
# Compositions administered in pulses have the surprising benefit of reducing the overall load of drug on the patient as the total amount of drug administered can be substantially less than that amount that has been therapeutically administered by conventional continuous therapy. […] Preferably, the therapeutically effective pulsed dose is less than the continuous dose, or less than one half, one third, one quarter, one fifth, one tenth or even one twentieth of the therapeutic continuous dose of the same composition or even less.
# [1] = In vivo half-life of the composition
# Procedure: The interval between pulses or the interval of no delivery is greater than 24 hours and preferably greater than 48 hours, and can be for even longer such as for 3, 4, 5, 6, 7, 8, 9 or 10 days, two, three or four weeks or even longer. As the results achieved may be surprising, the interval between pulses, when necessary, can be determined by one of ordinary skill in the art. Often, the interval between pulses can be calculated by administering another dose of the composition when the composition or the active component of the composition is no longer detectable in the patient prior to delivery of the next pulse. Intervals can also be calculated from the in vivo half-life of the composition. Intervals may be calculated as greater than the in vivo half-life, or 2, 3, 4, 5 and even 10 times greater the composition half-life.
# 32D cells = test: Proliferation studies using 32D cells at low IL-3; assay type: cell-based, murine; settings: 32D cells, low IL-3 (0.5 U/ml), FIG. 7
# Procedure: 32D cells were cultured in RPMI media with 10% fetal bovine serum (Sigma, St. Louis, Mo.), […] glutamine (GIBCO), and murine IL3 (20 U/ml) (Biosource International). Growth factor controls used included the standard concentration of IL-3 required for proliferation of these cells (25 U/ml) and a 50-fold lower concentration (0.5 U/ml), and erythropoietin (3 U/ml) or G-CSF ( U/ml), (Amgen, Thousand Oaks, Calif.). The test compounds were added at final concentrations of 1 mM. As a cell density of 2.5−10×10^5 is necessary for growth of this cell line, this density was maintained by passing the cells at three day intervals or by concentrating the cells when apoptosis occurred. Proportions of cells which were viable or apoptotic, and the fraction of cells in each part of the cell cycle was assessed by incubating the cells with Trypan blue and enumeration, and with propidium iodide incubation and FACScan analysis as previously described.
# The effects of the representative compounds which have been synthesized or selected for resistance to beta oxidative metabolism and glucuronidation in stimulating γ globin gene expression in a human erythroid-like cell line and for their effects on cell growth utilizing a multi-lineage murine hematopoietic cell line, 32D. This cell line is dependent on high concentrations of IL-3 for growth. […]
# [2] = test system: mice transgenic for a human beta globin locus YAC containing a silenced gamma globin gene; test: In vivo experiments in mice transgenic for the human beta globin gene locus
# Procedure: Three prototype compounds, methylhydrocinnamic acid (MHCA), phenoxyacetic acid (PAA), and dimethylbutyric acid PMB), were administered at doses from 100 to 250 mg/kg in two daily doses by intraperitoneal injection to mice transgenic for a human beta globin locus YAC containing a silenced gamma globin gene. Reticulocytes, newly synthesized red blood cells, were counted daily and non-alpha globin in MRNA was analyzed by Rnase protection. Only 50 microliters of blood were removed daily for testing. A 5 to 10-fold increase in reticulocytes and a 1.7-2.4 fold increase in gamma globin mRNA was observed within one week of therapy with the three protype compounds. In contrast, control mice to which normal saline was administered, with the same degree of phlebotomy for testing, had no significant changes in reticulocytes or globin in mRNA.
# anemic baboon = test: Hematopoietic stimulation in an anemic phlebotomized baboon; assay type: in vivo; settings: administered for five days, baboon phlebotomized 5% of blood volume daily, FIG. 13
# Procedure: An increase in multiple blood cell lineages resulted when a prototype hemokine compound (α methylhydrocinnamic acid) was administered for five days to an anemic baboon, which was being phlebotomized 5% of its blood volume daily.
# [3] = test system: Mononuclear cells from patients with sickle cell disease or thalassemia trait; test: Erythroid colony (BFU-E) cultures in methylcellulose; assay type: cell-based, human; settings: 0.2-0.5 mM, optimal growth factors
# Procedure: Mononuclear cells from patients with sickle cell disease or thalassemia trait were isolated on Ficoll Hypague, washed, and cultured in methylcellulose media with optimal concentrations of hematopoietic growth factors IL-3, GM-CSF, Stem Cell Factor, IL6, 3 U/ml Eiythropoietin, insulin, bovine serum albumin, and 0.2-0.5 mM concentrations of test compounds of derivatives of cinnamic acid and hydrocinnamic acid. […] The following illustrates some representative cultures: […]
# [4] = test system: system A transport of amino acids; test: System A transport of amino acids; assay type: cell-based
# Excerpt: Normal cell viability, the viability of an untransformed or uninfected cell, can be determined from analyzing the effects of the composition on one or more biological processes of the cell. Detrimental interference with one or more of these cellular processes becomes significant when the process becomes abnormal. Examples of quantitatable and qualifiable biological processes include the processes of cell division, protein synthesis, nucleic acid (DNA or RNA) synthesis, nucleic acid (principally DNA) fragmentation and apoptosis. Others processes include specific enzyme activities, the activities of the cellular transportation systems such as the transportation of amino acids by system A (neutral), system B (acidic) or system C (basic), and the expression of a cell surface protein. […] Abnormal cell division, for example, can be mitosis which occurs too rapidly, as in a malignancy, or unstably, resulting in programmed cell death or apoptosis, detected by increased DNA degradation. The determination of abnormal cell viability can be made on comparison with untreated control cells. Compositions preferably increase normal cell viability. Increased cell viability can be determined by those of ordinary skill in the art using, for example, DNA fragmentation analysis. […]
# in vivo = settings: monkey, po
# Procedure: (§1) Chronic indwelling venous and arterial catheters which were maintained using sterile technique for blood sampling. Compounds were administered by nasogastric tube and blood was collected to determine drug plasma levels at regular intervals following single oral doses. […] The test compounds were analyzed after ether extraction of the plasma, separation by HPLC, and quantitated by comparison to a spilled internal standard of heptanoic acid according to previously described methods.
# bone marrow cells = settings: continuous intravenous administration; cited from earlier work
# [5] = Pharmacokinetics after single oral doses in human volunteers; assay type: in vivo; settings: FIG. 4, in humans, oral doses of 40-500 mg/kg
# Procedure: as §1
# [6] = Pharmacokinetic studies after single oral doses in baboons; settings: monkey, plasma
# Procedure: as §1
# [7] = 100 to 250 mg/kg in two daily doses, intraperitoneal, listed as DMB
compound,measurement,setting,value
arginine butyrate [reference compound],Radioactivity Alpha Globin (α) mRNA,K562 cells; 1 mM,296132
same,Radioactivity Fetal Globin (γ) mRNA,K562 cells; 1 mM,2176523
same,γ/α,K562 cells; 1 mM,7.3
same,Fetal hemoglobin levels,thalassemic patients,rise substantially
same,half-life,[1],0.25 h
"CC(Cc1ccccc1)C(=O)O (stereo not drawn) [ST 7, α-methylhydrocinnamic acid]",fold induction at 1000 µM,K562 cells,2.4 to 26
same,stimulating γ globin compared to control cells (ranking in words),K562 cells; 1 mM,most active
same,Radioactivity Alpha Globin (α) mRNA,K562 cells; 1 mM,92979
same,Radioactivity Fetal Globin (γ) mRNA,K562 cells; 1 mM,1648056
same,γ/α,K562 cells; 1 mM,17.7
same,increase in proliferation over 4 days,32D cells,5 fold
same,Reticulocytes Peak,"[2]; 100 to 250 mg/kg in two daily doses, intraperitoneal, listed as MHCA",17.9 and 23.3
same,Reticulocytes Day 0,"[2]; baseline of the treated animal, listed as MHCA",2.9 and 2.3
same,blood cell lineages,anemic baboon,increase in both white blood cells and total hemoglobin
same,Mean BFU-E/culture 4 cultures averaged (per 0.2 million cells),[3],223
same,% Increase over control,[3]; BFU-E,32.4%
same,system A transport of amino acids,[4],do not significantly alter
same,half-life,in vivo,7.6 h
"Nc1ncn([C@@H]2O[C@H](CO)[C@@H](O)[C@H]2O)c(=O)n1 [AZA, 5-azacytidine]",increase in γ globin mRNA of bone marrow cells,bone marrow cells,five- to seven
"CCC(C)(C)C(=O)O [ST 20, 2,2 dimethylbutyric acid]",fold induction at 1000 µM,"K562 cells; primer extension, 1 mM, three days of culture, FIG. 1",2.4 to 26
same,stimulating γ globin compared to control cells (ranking in words),K562 cells; 1 mM,most active
same,Radioactivity Alpha Globin (α) mRNA,K562 cells; 1 mM,178751
same,Radioactivity Fetal Globin (γ) mRNA,K562 cells; 1 mM,1697936
same,γ/α,K562 cells; 1 mM,9.5
same,time for which plasma levels persisted in the millimolar range,[5],greater than 6 hours
same,Reticulocytes Peak,[2]; [7],17.7 and 21.3
same,γ/γ + β mRNA Peak,[2]; [7],0.36 and 0.31
same,γ/γ + β mRNA Day 0,"[2]; baseline of the treated animal, RNase protection, listed as DMB",0.20 and 0.17
same,Reticulocytes Day 0,"[2]; baseline of the treated animal, listed as DMB",2.4 and 4.2
same,half-life,[6],6.8 h
